Changes are numbered by the printed parent chain. Where two headings read alike, the source gives them in different places.
Experiments:
MGL = molecular target: T1, MGL (Rattus norvegicus, UniProt Q8R431); assay: 2-AG accumulation assay in rat brain homogenate; format: biochemical; details: read-out: Rat Brain 2AG % VehCntrl (%) @ 1 μM
T1 construct: one g rat brain was homogenized using a Polytron homogenizer; from tissue; host or cells: rat brain homogenate
T1 sequence (Q8R431 1-303): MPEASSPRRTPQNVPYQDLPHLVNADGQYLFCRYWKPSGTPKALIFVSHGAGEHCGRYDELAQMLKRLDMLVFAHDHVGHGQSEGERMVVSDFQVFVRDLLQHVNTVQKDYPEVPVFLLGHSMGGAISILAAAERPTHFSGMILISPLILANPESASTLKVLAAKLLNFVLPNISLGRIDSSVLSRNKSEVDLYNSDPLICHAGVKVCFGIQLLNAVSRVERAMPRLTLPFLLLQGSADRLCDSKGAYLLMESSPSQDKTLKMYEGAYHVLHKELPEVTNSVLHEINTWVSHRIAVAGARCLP

mutant MGL = molecular target: T2, mutant MGL (Homo sapiens, UniProt Q99685, L169S/L176S); assay: MGL ThermoFluor assay - mutant; format: binding
T2 sequence (Q99685 1-303 L169S/L176S): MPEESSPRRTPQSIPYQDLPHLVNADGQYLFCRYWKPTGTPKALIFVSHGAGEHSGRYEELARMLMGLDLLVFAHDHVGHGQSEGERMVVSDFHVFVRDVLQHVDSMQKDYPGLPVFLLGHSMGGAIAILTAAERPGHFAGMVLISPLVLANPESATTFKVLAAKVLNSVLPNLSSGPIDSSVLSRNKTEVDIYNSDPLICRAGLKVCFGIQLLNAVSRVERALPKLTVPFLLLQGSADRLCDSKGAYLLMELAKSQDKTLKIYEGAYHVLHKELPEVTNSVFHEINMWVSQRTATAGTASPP

[1] = molecular target: T3, purified wild type MGL (wt-MGLL 6H-11-313) (Homo sapiens, UniProt Q99685)
T3 sequence (Q99685 1-303): T2 sequence (Q99685 1-303 L169S/L176S) with S169L, S176L

[2] = rat brain homogenate, compound 1 μM, 2-AG accumulation as percent of vehicle
[3] = ThermoFluor concentration-response, read-out: MGL mutant ThermoFluor Kd
[4] = ThermoFluor thermal stability binding assay, read-out: MGL mutant ThermoFluor Kd
[5] = ThermoFluor, compound concentration measured by qNMR, read-out: MGL mutant ThermoFluor qKd (μM) (using qNMR conc.)
[6] = compound concentration measured by qNMR, read-out: MGL mutant ThermoFluor qKd (using qNMR conc.)

| SMILES | 2-AG accumulation, % of vehicle control at 1 µM (MGL; [2]) | Kd (mutant MGL; [3]) | IC50 [1] | Kd (mutant MGL; [4]) | Kd (mutant MGL; [5]) | Kd (mutant MGL; [6]) | 2-AG accumulation, % of vehicle control at 1 µM (MGL) | Kd (mutant MGL; MGL mutant ThermoFluor Kd, ThermoFluor concentration-response) |
| --- | --- | --- | --- | --- | --- | --- | --- | --- |
| CCC(C)(C)c1ccc(C(=O)N2CC(N3CCN(C(=O)c4nccs4)CC3)C2)cc1 [Cpd 887] | 270% | 0.009 µM | < 5 nM | – | – | – | – | – |
| O=C(c1ccc(C2CCCCC2)cc1)N1CC(N2CCN(C(=O)c3nccs3)CC2)C1 [Cpd 889] | 683% | 0.002 µM | < 5 nM | – | – | – | – | – |
| O=C(c1nccs1)N1CCN(C2CN(C(=O)c3sc4ccc5ccccc5c4c3Cl)C2)CC1 [Cpd 890] | 823% | 0.001 µM | < 5 nM | – | – | – | – | – |
| CC(C)Cc1ccc(C(=O)N2CC(N3CCN(C(=O)c4nccs4)CC3)C2)cc1 [Cpd 891] | 422% | 0.008 µM | < 5 nM | – | – | – | – | – |
| CCCCCCCc1ccc(C(=O)N2CC(N3CCN(C(=O)c4nccs4)CC3)C2)cc1 [Cpd 892] | 948% | 0.007 µM | < 5 nM | – | – | – | – | – |
| CCCCCc1ccc(C(=O)N2CC(N3CCN(C(=O)c4nccs4)CC3)C2)cc1 [Cpd 893] | 626% | 0.005 µM | < 5 nM | – | – | – | – | – |
| CCCCc1ccc(C(=O)N2CC(N3CCN(C(=O)c4nccs4)CC3)C2)cc1 [Cpd 894] | 534% | 0.006 µM | < 5 nM | – | – | – | – | – |
| O=C(c1nccs1)N1CCN(C2CN(C(=O)c3sc4ccc(Cl)cc4c3C(F)(F)F)C2)CC1 [Cpd 896, 1-(1-{[5-Chloro-3-(trifluoromethyl)-1-benzothiophen-2-yl]carbonyl}azetidin-3-yl)-4-(1,3-thiazol-2-ylcarbonyl)piperazine] | 648% | 0.008 µM | < 5 nM | – | – | – | – | – |
| Cc1c(C(=O)N2CC(N3CCN(C(=O)c4cscn4)CC3)C2)sc2ccc(C(F)(F)F)cc12 [Cpd 898] | 520% | – | < 5 nM | 0.009 µM | – | – | – | – |
| O=C(c1nccs1)N1CCN(C2CN(C(=O)c3sc4cc(F)c(C(F)(F)F)cc4c3Cl)C2)CC1 [Cpd 901, 1-(1-{[3-Chloro-6-fluoro-5-(trifluoromethyl)-1-benzothiophen-2-yl]carbonyl}azetidin-3-yl)-4-(1,3-thiazol-2-ylcarbonyl)piperazine] | 816% | – | < 5 nM | – | 0.001 µM | – | – | – |
| O=C(c1nccs1)N1CCN(C2CN(C(=O)c3sc4c(C(F)(F)F)c(F)ccc4c3Cl)C2)CC1 [Cpd 902, 1-(1-{[3-chloro-6-fluoro-7-(trifluoromethyl)-1-benzothiophen-2-yl]carbonyl}azetidin-3-yl)-4-(1,3-thiazol-2-ylcarbonyl)piperazine] | 585% | – | < 5 nM | – | 0.004 µM | – | – | – |
| O=C(c1ccc(COc2cccc(Cl)c2)cc1)N1CC(N2CCN(C(=O)c3cscn3)CC2)C1 [Cpd 959] | 861% | 0.044 µM | < 5 nM | – | – | – | – | – |
| O=C(c1ccc(OCc2ccc3ccccc3n2)cc1)N1CC(N2CCN(C(=O)C(F)(F)F)CC2)C1 [Cpd 968] | 360% | – | 19 nM | – | – | 1.46 µM | – | – |
| O=C(c1ccccc1)N1CCN(C2CN(C(=O)c3ccc(OCc4ccc(Cl)s4)cc3)C2)CC1 [Cpd 972] | 683% | – | 23 nM | 0.08 µM | – | – | – | – |
| O=C(c1ccc(OCc2cncc(Cl)c2)cc1)N1CC(N2CCN(C(=O)c3nccs3)CC2)C1 [Cpd 978] | 570% | – | 7 nM | 0.066 µM | – | – | – | – |
| O=C(c1ccc(C(F)c2ccc(C(F)(F)F)cc2)cc1)N1CC(N2CCN(C(=O)c3nccs3)CC2)C1 (centres unmarked) [Cpd 982, 1-{1-[(4-{Fluoro[4-(trifluoromethyl)phenyl]methyl}phenyl)carbonyl]azetidin-3-yl}-4-(1,3-thiazol-2-ylcarbonyl)piperazine] | 762% | 0.01 µM | < 5 nM | – | – | – | – | – |
| O=C(c1ccc(F)c(Cc2ccc(C(F)(F)F)cc2)c1)N1CC(N2CCN(C(=O)c3nccs3)CC2)C1 [Cpd 1007, 1-[1-({4-Fluoro-3-[4-(trifluoromethyl)benzyl]phenyl}carbonyl)azetidin-3-yl]-4-(1,3-thiazol-2-ylcarbonyl)piperazine] | 180% | 0.259 µM | 27 nM | – | – | – | – | – |

| SMILES | 2-AG accumulation, % of vehicle control at 1 µM (MGL; [2]) | Kd (mutant MGL; [3]) | IC50 [1] | Kd (mutant MGL; [4]) | Kd (mutant MGL; [5]) | Kd (mutant MGL; [6]) | 2-AG accumulation, % of vehicle control at 1 µM (MGL) | Kd (mutant MGL; MGL mutant ThermoFluor Kd, ThermoFluor concentration-response) |
| --- | --- | --- | --- | --- | --- | --- | --- | --- |
| Cc1c(Cc2ccc(C(F)(F)F)cc2)cccc1C(=O)N1CC(N2CCN(C(=O)c3cscn3)CC2)C1 [Cpd 1009] | 706% | 0.589 µM | 65 nM | – | – | – | – | – |
| C/C(=C\c1ccc(Cl)cc1)c1c(C)c(C(=O)N2CC(N3CCN(C(=O)c4ccc[nH]4)CC3)C2)nn1-c1ccc(Cl)cc1Cl [Cpd 1011] | 994% | 0.124 µM | < 5 nM | – | – | – | – | – |
| C/C(=C\c1ccc(Cl)cc1)c1c(C)c(C(=O)N2CC(N3CCN(C(=O)C(F)(F)F)CC3)C2)nn1-c1ccc(Cl)cc1Cl [Cpd 1012] | 173% | – | 13 nM | – | – | 3.34 µM | – | – |
| O=C(c1ccccc1)c1ccc(C(=O)N2CC(N3CCN(C(=O)c4nccs4)CC3)C2)cc1 [Cpd 1017] | 307% | 0.049 µM | 35 nM | – | – | – | – | – |
| O=C(c1ccc[nH]1)N1CCN(C2CN(C(=O)c3nn(-c4ccc(Cl)cc4Cl)c4c3CCC/C4=C\c3ccc(Cl)cc3)C2)CC1 [Cpd 1019] | 287% | 0.166 µM | 6 nM | – | – | 0.132 µM | – | – |
| O=C(c1nn(-c2ccc(Cl)cc2Cl)c2c1CCC/C2=C\c1ccc(Cl)cc1)N1CC(N2CCN(C(=O)C(F)(F)F)CC2)C1 [Cpd 1020] | – | – | 63 nM | – | – | – | 135% | 3 µM |
| O=C(c1nccs1)N1CCN(C2CN(C(=O)c3nn(-c4ccc(Cl)cc4Cl)c4c3CSC/C4=C\c3ccc(F)cc3)C2)CC1 [Cpd 1021] | 232% | 0.239 µM | 15 nM | – | – | – | – | – |
| O=C(c1nn(-c2ccc(Cl)cc2Cl)c2c1CSC/C2=C\c1ccc(F)cc1)N1CC(N2CCN(C(=O)C(F)(F)F)CC2)C1 [Cpd 1022] | 189% | 0.228 µM | 67 nM | – | – | 1.06 µM | – | – |
| O=C(c1cscn1)N1CCN(C2CN(C(=O)c3nn(-c4ccc(Cl)cc4Cl)c4c3CCC/C4=C\c3ccc(Cl)cc3)C2)CC1 [Cpd 1023] | 262% | 0.143 µM | 41 nM | – | – | – | – | – |
| O=C(c1ccc[nH]1)N1CCN(C2CN(C(=O)c3nn(-c4ccc(Cl)cc4Cl)c4c3CSC/C4=C\c3ccc(F)cc3)C2)CC1 [Cpd 1024] | 281% | – | 69 nM | – | – | 0.135 µM | – | – |
| O=C(c1ccc(F)cc1)c1c[nH]c2cc(C(=O)N3CC(N4CCN(C(=O)c5nccs5)CC4)C3)ccc12 [Cpd 1025] | 851% | – | 19 nM | – | – | 0.066 µM | – | – |
| Cn1cc(Cc2ccc(F)cc2)c2ccc(C(=O)N3CC(N4CCN(C(=O)c5cscn5)CC4)C3)cc21 [Cpd 1027] | 785% | – | 14 nM | – | – | 0.012 µM | – | – |
| Cn1cc(Cc2ccc(F)cc2)c2ccc(C(=O)N3CC(N4CCN(C(=O)c5ccc[nH]5)CC4)C3)cc21 [Cpd 1028] | 647% | – | 16 nM | – | – | 0.011 µM | – | – |
| O=C(c1ccc2c(ccn2-c2cc(F)c(F)c(F)c2)c1)N1CC(N2CCN(C(=O)c3cscn3)CC2)C1 [Cpd 1055] | 701% | – | 5 nM | – | 0.02 µM | – | – | – |
| O=C(c1cnc2c(ccn2-c2ccc(F)cc2)c1)N1CC(N2CCN(C(=O)c3nccs3)CC2)C1 [Cpd 1056] | 498% | – | 6 nM | – | 0.012 µM | – | – | – |
| Cc1c(C(=O)N2CC(N3CCN(C(=O)c4cscn4)CC3)C2)sc2ccc(-c3ccccc3)cc12 [Cpd 1058, 1-{1-[(3-Methyl-5-phenyl-1-benzothiophen-2-yl)carbonyl]azetidin-3-yl}-4-(1,3-thiazol-4-ylcarbonyl)piperazine] | 590% | 0.007 µM | 6 nM | – | – | – | – | – |
| Cc1sc(C(=O)N2CC(N3CCN(C(=O)c4nccs4)CC3)C2)cc1-c1cccc(F)c1 [Cpd 1059] | 507% | – | 6 nM | – | 0.066 µM | – | – | – |

From patent US8362000B2, “Azetidinyl diamides as monoacylglycerol lipase inhibitors” (Janssen Pharmaceutica NV, priority 2009, dated 2013)
